Experimental data published in publication PMC9188586, “Design, synthesis and evaluation of novel tetrahydropyridothienopyrimidin-ureas as cytotoxic and anti-angiogenic agents” (Scientific Reports, 2022).
Values joined by “and” are separate entries in the source; they are usually repeats but may differ in a detail not shown here. Identical values can stand only once.

Columns and labels:
[1] = system: chick chorioallantoic membrane (CAM); assay: Chick chorioallantoic membrane (CAM) anti-angiogenic assay; format: in vivo; settings: IC50 concentration, compared with Sorafenib as positive control
Procedure: The hydrogen bonding between NH groups of urea and target proteins were known to give rise to better inhibition of an important growth factor receptor (VEGFR-2) involved in the process of angiogenesis. Thus, the chick chorioallantoic membrane (CAM) assay was utilized as an in-vivo technique to evaluate the anti-vascular effects. Therefore, the anti-angiogenic strength of compounds were investigated by a cheap and simple CAM assay (Figs. 4, 5)[32],[33]. The anti-angiogenic strength was measured and compared with DMSO (control) and Sorafenib as a positive control.
All eggs were supplied from (Poultry Breeding Farm, Tehran, Iran). Since the allantois of the chick embryo appears at about 3.5 days of incubation, the corresponding eggs were incubated (37.5 °C, relative humidity: 55–65%). To decrease the risk of infection, the particular regions of the egg, e.g., the front side of the embryo were cleaned and sterilized with 70% EtOH. On the 6th incubation day, a false air sac was created directly over the CAM, permitting its detachment from the shell membrane. The procedure was continued through a square incision over the CAM. The prepared window in a square form (1 × 1 cm), was covered by a flexible film and then transported to the incubator. On the 8th incubation day, the particular paper discs (Whatman) were coated with target agents and placed in the central area of the corresponding window. The surface of CAM was visually evaluated on the 12th incubation day using the stereomicroscope. We decided to use the number and the length of capillary blood vessels as the index of anti-angiogenic activity. Consequently, the prepared images were analyzed by the advantageous software, Image J[22],[23].

SW480 (colon cancer) = assay: MTT antiproliferative assay, SW480; format: cell-based; settings: Homo sapiens, SW480, 48 h incubation
Procedure: (§1) Two series of new tetrahydropyridothienopyrimidines were evaluated for their cytotoxicity against a panel of cell lines, including MCF-7 (breast cancer), SW480 (colon cancer), PC-3 (prostate cancer), HEPG-2 (liver cancer) and HUVEC (human umbilical vein endothelial cell) using 3-(4,5-dimethyl- thiazol-2-yl)-2,5-diphenyltetrazolium bromide (MTT) assay. Sorafenib was used as a positive control. The cytotoxicity is expressed as the concentration that inhibits 50% of cell viability (IC50). […] The preliminary SAR is evaluated on the basis of cytotoxicity results of phenyl derivatives (11a–k) and pyridine derivatives (11l–11y).The mesomeric effect didn’t improve the cytotoxicity of compound 11d in the first series.
(§2) Cytotoxicity of the compounds was measured by detecting the ability of cells in transforming MTT into a purple formazan dye. The different cell lines were provided by the National Cell Bank of Iran (Pastor Institute, Tehran, Iran). The required materials and reagents were purchased from Sigma. After the cell culture in RPMI-1640 medium and DMEM containing 10% FBS (Gibco, Milano, Italy), the suspension of MCF-7 (7000) and other cells (5000) were poured into 96 well plates and incubated in a humidified incubator containing 5% CO2 at 37 °C for 24 h. Subsequently, a solution of the compounds in DMSO was added to these plates and incubated for 48 h. After incubation, the solution of 5% 3-(4,5-Dimethyl-2-thiazolyl)-2,5-diphenyl-2H-tetrazolium bromide (MTT) was added to all the wells and incubation was continued for another 4 h. The record of color intensity of the formazan solution was at 570 nm by Bio-Rad microplate reader (Model 680) which reflects the cell growth condition.

HUVEC cells [2] = assay: Annexin V/PI flow cytometry apoptosis analysis, HUVEC; format: cell-based, human; settings: IC50 concentration, 48 h, one replicate
Procedure: (§3) The experiment was conducted by flow cytometry analysis of […] cells with propidium iodide (PI) and annexin V-fluorescein isothiocyanate (annexine V-FITC).
(§4) Then, cells were trypsinized, rinsed with phosphate-bufferede buffered saline (PBS) and then centrifuged at 1200 rpm for 3 min. After this, the binding buffer (500 μL) was added to the resulting cells, followed by addition and mixing with […] and PI (5 μL). After this, the samples were incubated in dark for 10 to 15 min at room temperature, and then the cellular analysis was measured by flow cytometer (FACS Calibur Bectone-Dickinson).

caspase-3 = assay: Caspase-3 level by ELISA in MCF-7 cells; format: cell-based, human; settings: 24 h
Procedure: The activity of caspase (cysteinyl-aspartate-specific proteases) as intracellular cell death enzymes has been characterized. So, the […] the process[28]–[31].
Caspase-3 activity was measured using a caspase-3 (Active) (human) ELISA kit, MBS450774, according to the manufacturer’s instructions.

PC-3 (prostate cancer) = assay: MTT antiproliferative assay, PC-3; format: cell-based; settings: 48 h incubation
Procedure: as §1, §2

[3] = system: HUVEC (human umbilical vein endothelial cell); assay: MTT antiproliferative assay, HUVEC; format: cell-based; settings: Homo sapiens, HUVEC; MTT assay, 48 h incubation
Procedure: as §1, §2

MRC5 normal cell line = assay: MTT cytotoxicity against normal cell line MRC5; format: cell-based; settings: for IC50: Homo sapiens, MRC5, MTT assay, normal cell line
Procedure: as §2

MCF-7 cells [4] = assay: Annexin V/PI flow cytometry apoptosis analysis, MCF-7; format: cell-based; settings: MCF-7, IC50 concentration, 48 h, one replicate
Procedure: as §3, §4

MCF-7 (breast cancer) = assay: MTT antiproliferative assay, MCF-7; format: cell-based; settings: Homo sapiens, MCF7, 48 h incubation
Procedure: as §1, §2

HEPG-2 (liver cancer) = assay: MTT antiproliferative assay, HEPG-2; format: cell-based; settings: Homo sapiens, HepG2, 48 h incubation
Procedure: as §1, §2

VEGFR-2 = target: T1, VEGFR-2 (Homo sapiens, UniProt P35968); assay: Western blot of VEGFR-2 phosphorylation in HUVECs; format: cell-based; settings: HUVEC, IC50 concentration, after 48 and 72 h, compared to positive control
T1 construct: endogenous in cells; host or cells: HUVEC
Procedure: It was is observed that, after 48 and 72 h, the phosphorylation of VEGFR-2 decreases compared to the positive control (Fig. 7).
After thawing in […] lysis buffer and centrifuge at 1200 rpm, the loading and electrophoresis of proteins on 12% SDSPAGE was performed. Then, they transferred for 1.5 h at 100 V into a nitrocellulose membrane ([…]) and blocked with 5% blocking buffer. After incubation of antibodies at 4 ◦C for 12 h, the detection of immunoblots were performed using the enhanced chemiluminescence (ECL) method.

MCF-7 cells [5] = assay: Cell cycle analysis by flow cytometry, MCF-7; format: cell-based; settings: MCF-7, IC50 concentration, 48 h
Procedure: (§5) We can conclude that compound 11n induces cellular apoptosis in […]. An increase in sub-G1 area is an indicative of apoptosis.
(§6) After trypsinization and rinsing with PBS, the cells were centrifuged at 1200 rpm for 5 min and then incubated with PBS and fixed in ice-cooled 70% ethanol. After washing with PBS, the cells were resuspended in RNase A (0.1 mg/mL) and incubated for 5 h. Then, staining with PI ([…]) and incubation for 15 min were performed. By using Novocyte flow cytometer (ACEA Biosciences) the analysis was done and the calculation of cell cycle distributions was done by NovoExpress 1.1.0 software.

HUVEC cells [6] = assay: Cell cycle analysis by flow cytometry, HUVEC; format: cell-based, human; settings: IC50 concentration, 48 h
Procedure: as §5, §6

HUVEC and MCF-7 cells = assay: Cell cycle analysis by flow cytometry, cell line not given; format: cell-based; settings: cell line not stated, IC50 concentration, 48 h
Procedure: An increase in sub-G1 area is an indicative of apoptosis.
as §6

T1 sequence (P35968 20-1356): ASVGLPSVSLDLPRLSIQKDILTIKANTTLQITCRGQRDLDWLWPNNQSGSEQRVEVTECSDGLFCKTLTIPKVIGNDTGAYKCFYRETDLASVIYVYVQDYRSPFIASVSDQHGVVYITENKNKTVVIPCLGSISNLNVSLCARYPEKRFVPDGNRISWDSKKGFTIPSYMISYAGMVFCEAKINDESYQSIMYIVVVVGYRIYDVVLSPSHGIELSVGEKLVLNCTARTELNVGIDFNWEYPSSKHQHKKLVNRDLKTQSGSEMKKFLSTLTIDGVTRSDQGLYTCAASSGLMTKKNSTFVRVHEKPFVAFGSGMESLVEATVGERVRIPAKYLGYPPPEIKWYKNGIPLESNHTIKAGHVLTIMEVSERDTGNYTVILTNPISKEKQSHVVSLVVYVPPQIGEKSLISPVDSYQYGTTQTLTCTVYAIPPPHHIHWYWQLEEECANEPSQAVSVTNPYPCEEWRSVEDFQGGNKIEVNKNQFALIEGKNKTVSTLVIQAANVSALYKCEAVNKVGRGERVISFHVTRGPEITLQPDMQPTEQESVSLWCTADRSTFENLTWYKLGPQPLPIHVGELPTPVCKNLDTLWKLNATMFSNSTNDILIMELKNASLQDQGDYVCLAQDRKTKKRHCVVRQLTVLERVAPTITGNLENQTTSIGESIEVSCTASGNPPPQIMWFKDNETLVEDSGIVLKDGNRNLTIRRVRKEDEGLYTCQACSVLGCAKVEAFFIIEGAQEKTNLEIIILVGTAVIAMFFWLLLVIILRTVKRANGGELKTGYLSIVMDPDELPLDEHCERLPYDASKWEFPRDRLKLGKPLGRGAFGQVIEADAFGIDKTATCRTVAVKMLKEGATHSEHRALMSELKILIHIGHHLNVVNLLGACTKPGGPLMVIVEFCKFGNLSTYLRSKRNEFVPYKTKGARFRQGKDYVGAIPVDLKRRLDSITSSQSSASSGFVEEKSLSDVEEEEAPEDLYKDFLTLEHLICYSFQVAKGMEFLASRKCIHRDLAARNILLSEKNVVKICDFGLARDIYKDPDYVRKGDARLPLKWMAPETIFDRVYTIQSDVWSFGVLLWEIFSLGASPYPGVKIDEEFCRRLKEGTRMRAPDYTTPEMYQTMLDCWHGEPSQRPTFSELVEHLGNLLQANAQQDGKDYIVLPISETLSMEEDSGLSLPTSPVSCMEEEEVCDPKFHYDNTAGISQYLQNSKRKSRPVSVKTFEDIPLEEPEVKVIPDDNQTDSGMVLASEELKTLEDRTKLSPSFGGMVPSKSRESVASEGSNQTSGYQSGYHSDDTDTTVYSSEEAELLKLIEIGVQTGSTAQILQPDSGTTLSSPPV

SMILES | Inhibitory effect on growing CAM (in words) [1] | IC50 (SW480 (colon cancer)) | Early apoptotic cells (Q3) (HUVEC cells [2]) | Late apoptotic cells (Q2) (HUVEC cells [2]) | Casp3 conc. (caspase-3; 11n at 2.67 μM, Sorafenib at 7.06 μM) | FLD (fold change of caspase-3 level) (caspase-3; control = 1) | IC50 (PC-3 (prostate cancer)) | IC50 [3] | IC50 (MRC5 normal cell line) | SI (Selectivity Index) (MRC5 normal cell line; IC50 value normal cell (MRC5)/IC50 value cancer cell (MCF-7)) | Early apoptotic cells (Q3) (MCF-7 cells [4]) | Late apoptotic cells (Q2) (MCF-7 cells [4]) | IC50 (MCF-7 (breast cancer)) | IC50 (HEPG-2 (liver cancer)) | Phosphorylation of VEGFR-2 (in words) (VEGFR-2) | Percentage of cells in G0 phase (MCF-7 cells [5]) | Percentage of cells in G0 phase (HUVEC cells [6]) | Percentage of cells in G0 phase (HUVEC and MCF-7 cells) | Percentage of cell population in the S phase (MCF-7 cells [5]) | melting point
Cc1ccc(NC(=O)Nc2nnc(Sc3ncnc4sc5c(c34)CCN(Cc3ccncc3)C5)s2)cc1 [Compound 11n, 1-(5-((7-(pyridin-4-ylmethyl)-5,6,7,8-tetrahydropyrido[4',3':4,5]thieno[2,3-d]pyrimidin-4-yl)thio)-1,3,4-thiadiazol-2-yl)-3-(p-tolyl)urea] | slightly weaker inhibitory effects | 6.84 ± 0.05 µM | 16.5% | 79.8% | 3.63 ± 0.52 ng/mL | 5.2 fold | 11.35 ± 0.09 µM | 2.09 ± 0.08 µM | 38.1 ± 0.81 µM | 14 and 14.2 | 22.8% | 58.2% | 2.67 ± 0.21 µM | 7.2 ± 0.03 µM | decreases | 54.3% | 65.5% |  |  | 
Cc1ccccc1NC(=O)Nc1nnc(Sc2ncnc3sc4c(c23)CCN(Cc2ccncc2)C4)s1 [Compound 11l, 1-(5-((7-(pyridin-4-ylmethyl)-5,6,7,8-tetrahydropyrido[4',3':4,5]thieno[2,3-d]pyrimidin-4-yl)thio)-1,3,4-thiadiazol-2-yl)-3-(o-tolyl)urea] |  | 15 ± 0.38 µM | 5.51% | 89.0% |  |  | 6.11 ± 0.08 µM | 2.53 ± 0.05 µM | 24.8 ± 0.36 µM |  |  |  | 2.8 ± 0.03 µM | 9.94 ± 0.07 µM |  |  |  | 97.6% | 49.8% | 
O=C(Nc1cccc(F)c1)Nc1nnc(Sc2ncnc3sc4c(c23)CCN(Cc2ccncc2)C4)s1 [Compound 11q, 1-(3-fluorophenyl)-3-(5-((7-(pyridin-4-ylmethyl)-5,6,7,8-tetrahydropyrido[4',3':4,5]thieno[2,3-d]pyrimidin-4-yl)thio)-1,3,4-thiadiazol-2-yl)urea] |  | 21.8 ± 0.72 µM |  |  |  |  | 4.5 ± 0.03 µM | 10.13 ± 0.05 µM |  |  |  |  | 9.17 ± 0.04 µM | 74.3 ± 2.12 µM |  |  |  |  |  | 243 to 246 °C
O=C(Nc1ccc(Cl)c(C(F)(F)F)c1)Nc1nnc(Sc2ncnc3sc4c(c23)CCN(Cc2ccncc2)C4)s1 [Compound 11y, 1-(4-chloro-3-(trifluoromethyl)phenyl)-3-(5-((7-(pyridin-4-ylmethyl)-5,6,7,8-tetrahydropyrido[4',3':4,5]thieno[2,3-d]pyrimidin-4-yl)thio)-1,3,4-thiadiazol-2-yl)urea] |  | 45.69 ± 0.06 µM |  |  |  |  | 4.37 ± 0.06 µM | 57.1 ± 0.61 µM |  |  |  |  | 20.48 ± 0.11 µM | 71.6 ± 3.24 µM |  |  |  |  |  | 257 to 260 °C
